From ChEMBL document CHEMBL1201862, “PubChem BioAssay data set” (2004)
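Exposure lasted 48 hours, with cells grown in 96-well plates and compounds tested at five concentrations. The concentration for 50% growth inhibition is given as GI50.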 Calls of active or inactive are those of the source. Rule as the data show it: active = GI50 up to about 1.1 µM and inactive = higher.

Experiments:
Test in all cases: NCI tumour cell line growth inhibition, 48 h
ACHN = test system: ACHN
CCRF-CEM = test system: CCRF-CEM
HCT-116 = test system: HCT-116
HT-29 = test system: HT-29
LOX IMVI = test system: LOX IMVI
MOLT-4 = test system: MOLT-4
NCI-H226 = test system: NCI-H226
NCI-H23 = test system: NCI-H23
NCI-H460 = test system: NCI-H460
OVCAR-8 = test system: OVCAR-8
SF-268 = test system: SF-268
SNB-19 = test system: SNB-19
SNB-75 = test system: SNB-75
UACC-62 = test system: UACC-62
HCT-15 = test system: HCT-15
SF-539 = test system: SF-539

Cc1cccc(NC2=NC(=O)C(CC(=O)Nc3cccc(C)c3C)S2)c1 (stereo not given)
GI50 (ACHN): > 100 µM (inactive)
GI50 (CCRF-CEM): 25.8 µM (inactive)
GI50 (HCT-116): > 100 µM (inactive)
GI50 (HT-29): > 100 µM (inactive)
GI50 (LOX IMVI): > 100 µM (inactive)
GI50 (MOLT-4): 24.3 µM (inactive)
GI50 (NCI-H226): > 100 µM (inactive)
GI50 (NCI-H23): > 100 µM (inactive)
GI50 (NCI-H460): > 100 µM (inactive)
GI50 (OVCAR-8): > 100 µM (inactive)
GI50 (SF-268): > 100 µM (inactive)
GI50 (SNB-19): > 100 µM (inactive)
GI50 (SNB-75): > 100 µM (inactive)
GI50 (UACC-62): > 100 µM (inactive)

CCC(=O)CCC1=Nc2nnc(CCCCc3nnc4n3C(=O)C(CCC(=O)CC)=N4)n2C1=O
GI50 (ACHN): > 100 µM (inactive)
GI50 (CCRF-CEM): > 100 µM (inactive)
GI50 (HCT-15): > 100 µM
GI50 (HT-29): > 100 µM (inactive)
GI50 (LOX IMVI): > 100 µM (inactive)
GI50 (MOLT-4): > 100 µM (inactive)
GI50 (NCI-H226): > 100 µM (inactive)
GI50 (NCI-H23): > 100 µM (inactive)
GI50 (NCI-H460): > 100 µM (inactive)
GI50 (OVCAR-8): > 100 µM (inactive)
GI50 (SF-268): > 100 µM (inactive)
GI50 (SF-539): > 100 µM (inactive)
GI50 (SNB-19): > 100 µM (inactive)
GI50 (SNB-75): > 100 µM (inactive)
GI50 (UACC-62): > 100 µM (inactive)

CC#COS(=O)(=O)c1ccc(C)cc1
GI50 (ACHN): 58.2 µM (inactive)
GI50 (CCRF-CEM): 27.9 µM (inactive)
GI50 (HCT-116): 37.5 µM (inactive)
GI50 (HCT-15): 79.8 µM
GI50 (HT-29): 45.9 µM (inactive)
GI50 (LOX IMVI): 52 µM (inactive)
GI50 (MOLT-4): 41.1 µM (inactive)
GI50 (NCI-H226): 89.3 µM (inactive)
GI50 (NCI-H23): 65.6 µM (inactive)
GI50 (NCI-H460): 70.6 µM (inactive)
GI50 (OVCAR-8): > 100 µM (inactive)
GI50 (SF-268): 93.3 µM (inactive)
GI50 (SF-539): > 100 µM (inactive)
GI50 (SNB-19): > 100 µM (inactive)
GI50 (UACC-62): 32.4 µM (inactive)

C[N+](C)=c1nc(N2CCOCC2)ss1
GI50 (ACHN): > 100 µM (inactive)
GI50 (CCRF-CEM): > 100 µM (inactive)
GI50 (HCT-116): > 100 µM (inactive)
GI50 (HCT-15): > 100 µM
GI50 (HT-29): 22.8 µM (inactive)
GI50 (LOX IMVI): 88.7 µM (inactive)
GI50 (MOLT-4): > 100 µM (inactive)
GI50 (NCI-H226): > 100 µM (inactive)
GI50 (NCI-H23): > 100 µM (inactive)
GI50 (NCI-H460): 8.04 µM (inactive)
GI50 (OVCAR-8): > 100 µM (inactive)
GI50 (SF-268): 76.6 µM (inactive)
GI50 (SF-539): > 100 µM (inactive)
GI50 (SNB-19): > 100 µM (inactive)
GI50 (UACC-62): 8.53 µM (inactive)

CCOc1ccc2nc(NC(=O)C(=O)C(C(=O)c3ccccc3F)C3OC(=O)c4ccccc43)sc2c1 (stereo not given)
GI50 (ACHN): 33.2 µM (inactive)
GI50 (CCRF-CEM): 12.3 µM (inactive)
GI50 (HCT-116): 17.6 µM (inactive)
GI50 (HCT-15): 14.5 µM
GI50 (MOLT-4): 10.3 µM (inactive)
GI50 (NCI-H226): 5.01 µM (inactive)
GI50 (NCI-H460): 17.5 µM (inactive)
GI50 (OVCAR-8): 16 µM (inactive)
GI50 (SF-268): 16.1 µM (inactive)
GI50 (SF-539): 10.3 µM (inactive)
GI50 (SNB-19): 14.5 µM (inactive)
GI50 (SNB-75): 15.1 µM (inactive)
GI50 (UACC-62): 14.6 µM (inactive)

[O-][S+]1[C@H](c2ccccc2)c2c(-c3ccccc3)sc(-c3ccccc3)c2[C@@H]1c1ccccc1 (stereo not given in full)
GI50 (ACHN): 5.89 µM (inactive)
GI50 (CCRF-CEM): 89.7 µM (inactive)
GI50 (HCT-15): 7.1 µM
GI50 (HT-29): 41 µM (inactive)
GI50 (LOX IMVI): 94.8 µM (inactive)
GI50 (MOLT-4): 4.75 µM (inactive)
GI50 (NCI-H23): 6.55 µM (inactive)
GI50 (NCI-H460): 17.1 µM (inactive)
GI50 (OVCAR-8): 8.75 µM (inactive)
GI50 (SF-268): > 100 µM (inactive)
GI50 (SF-539): > 100 µM (inactive)
GI50 (SNB-19): 77.1 µM (inactive)
GI50 (SNB-75): 12.4 µM (inactive)
GI50 (UACC-62): 39.6 µM (inactive)

O=C(CC/C(CC(=O)c1ccc(Cl)cc1)=N/O)Nc1ccc(Cl)c(Cl)c1
GI50 (ACHN): 31.8 µM (inactive)
GI50 (CCRF-CEM): > 100 µM (inactive)
GI50 (HCT-116): > 100 µM (inactive)
GI50 (HCT-15): 48.1 µM
GI50 (HT-29): > 100 µM (inactive)
GI50 (MOLT-4): 53.2 µM (inactive)
GI50 (NCI-H226): > 100 µM (inactive)
GI50 (NCI-H23): 45.5 µM (inactive)
GI50 (NCI-H460): > 100 µM (inactive)
GI50 (OVCAR-8): > 100 µM (inactive)
GI50 (SF-268): > 100 µM (inactive)
GI50 (SF-539): > 100 µM (inactive)
GI50 (SNB-19): > 100 µM (inactive)
GI50 (SNB-75): 26 µM (inactive)
GI50 (UACC-62): 18.3 µM (inactive)

CC(=O)OCC1OC(n2c(=S)n(-c3ccccc3)c(=O)c3cc(Br)ccc32)C(OC(C)=O)C1OC(C)=O (stereo not given)
GI50 (ACHN): > 100 µM (inactive)
GI50 (HCT-116): > 100 µM (inactive)
GI50 (HCT-15): > 100 µM
GI50 (HT-29): > 100 µM (inactive)
GI50 (LOX IMVI): > 100 µM (inactive)
GI50 (MOLT-4): 53.8 µM (inactive)
GI50 (NCI-H226): > 100 µM (inactive)
GI50 (NCI-H23): > 100 µM (inactive)
GI50 (NCI-H460): > 100 µM (inactive)
GI50 (OVCAR-8): > 100 µM (inactive)
GI50 (SF-268): > 100 µM (inactive)
GI50 (SF-539): > 100 µM (inactive)
GI50 (SNB-19): > 100 µM (inactive)
GI50 (SNB-75): 83.9 µM (inactive)
GI50 (UACC-62): > 100 µM (inactive)

CC(=O)Oc1c(-c2ccccc2)[nH]c2cc([N+](=O)[O-])c(/C(Cl)=C/c3ccccc3)cc12
GI50 (ACHN): 5.4 µM (inactive)
GI50 (CCRF-CEM): 3.61 µM (inactive)
GI50 (HCT-116): 3.91 µM (inactive)
GI50 (HT-29): 3.2 µM (inactive)
GI50 (MOLT-4): 2.84 µM (inactive)
GI50 (NCI-H226): 4 µM (inactive)
GI50 (NCI-H23): 2.47 µM (inactive)
GI50 (NCI-H460): 4.62 µM (inactive)
GI50 (OVCAR-8): 4.3 µM (inactive)
GI50 (SF-268): 7.96 µM (inactive)
GI50 (SNB-19): 8.97 µM (inactive)
GI50 (SNB-75): 15.6 µM (inactive)
GI50 (UACC-62): 4.24 µM (inactive)

C=CCC1C(=O)C(C(=O)OC)N2CCc3c([nH]c4ccccc34)C12 (stereo not given)
GI50 (CCRF-CEM): 95.5 µM (inactive)
GI50 (HCT-116): > 100 µM (inactive)
GI50 (HCT-15): > 100 µM
GI50 (HT-29): > 100 µM (inactive)
GI50 (MOLT-4): 64.9 µM (inactive)
GI50 (NCI-H23): > 100 µM (inactive)
GI50 (OVCAR-8): > 100 µM (inactive)
GI50 (SF-268): > 100 µM (inactive)
GI50 (SF-539): > 100 µM (inactive)
GI50 (SNB-19): > 100 µM (inactive)
GI50 (UACC-62): > 100 µM (inactive)

NC(=O)C12CC3CC(CC(F)(C3)C1)C2
GI50 (ACHN): > 100 µM (inactive)
GI50 (CCRF-CEM): > 100 µM (inactive)
GI50 (HCT-116): > 100 µM (inactive)
GI50 (HT-29): > 100 µM (inactive)
GI50 (LOX IMVI): > 100 µM (inactive)
GI50 (MOLT-4): > 100 µM (inactive)
GI50 (NCI-H23): > 100 µM (inactive)
GI50 (NCI-H460): > 100 µM (inactive)
GI50 (OVCAR-8): > 100 µM (inactive)
GI50 (SF-539): > 100 µM (inactive)
GI50 (SNB-75): 57.4 µM (inactive)
GI50 (UACC-62): > 100 µM (inactive)

O=C1C=C(N2CCCC2)C=C(N2CCCC2)C1
GI50 (ACHN): > 100 µM (inactive)
GI50 (CCRF-CEM): > 100 µM (inactive)
GI50 (HCT-116): > 100 µM (inactive)
GI50 (HCT-15): > 100 µM
GI50 (HT-29): > 100 µM (inactive)
GI50 (LOX IMVI): > 100 µM (inactive)
GI50 (MOLT-4): > 100 µM (inactive)
GI50 (NCI-H226): > 100 µM (inactive)
GI50 (NCI-H23): > 100 µM (inactive)
GI50 (NCI-H460): > 100 µM (inactive)
GI50 (OVCAR-8): > 100 µM (inactive)
GI50 (SF-268): > 100 µM (inactive)
GI50 (SNB-19): > 100 µM (inactive)
GI50 (SNB-75): 85.1 µM (inactive)
GI50 (UACC-62): > 100 µM (inactive)

Cc1nc2c(sc(=S)n2-c2ccccc2)c2nc3ccccc3n12
GI50 (ACHN): > 100 µM (inactive)
GI50 (CCRF-CEM): > 100 µM (inactive)
GI50 (HCT-15): > 100 µM
GI50 (HT-29): > 100 µM (inactive)
GI50 (LOX IMVI): > 100 µM (inactive)
GI50 (MOLT-4): > 100 µM (inactive)
GI50 (NCI-H226): > 100 µM (inactive)
GI50 (NCI-H23): > 100 µM (inactive)
GI50 (OVCAR-8): > 100 µM (inactive)
GI50 (SF-268): > 100 µM (inactive)
GI50 (SF-539): > 100 µM (inactive)
GI50 (SNB-19): > 100 µM (inactive)
GI50 (SNB-75): > 100 µM (inactive)
GI50 (UACC-62): > 100 µM (inactive)

Cn1c(=O)c2nc(N3CCCCC3)cnc2n(C)c1=O
GI50 (ACHN): > 100 µM (inactive)
GI50 (CCRF-CEM): > 100 µM (inactive)
GI50 (HCT-116): > 100 µM (inactive)
GI50 (HCT-15): > 100 µM
GI50 (HT-29): > 100 µM (inactive)
GI50 (MOLT-4): > 100 µM (inactive)
GI50 (NCI-H23): > 100 µM (inactive)
GI50 (NCI-H460): > 100 µM (inactive)
GI50 (OVCAR-8): > 100 µM (inactive)
GI50 (SF-268): > 100 µM (inactive)
GI50 (SF-539): > 100 µM (inactive)
GI50 (SNB-19): > 100 µM (inactive)
GI50 (SNB-75): > 100 µM (inactive)
GI50 (UACC-62): > 100 µM (inactive)
